Where two headings read alike, the source gives them in different places.
Key:
Assay in all cases: Radioligand binding assay, cloned receptor
human GALR2 = molecular target: T1, human GALR2 (Homo sapiens, UniProt O43603); settings: read-out: hGALR2 Ki
T1 construct: expressed in transfected cells
T1 sequence (O43603 1-387): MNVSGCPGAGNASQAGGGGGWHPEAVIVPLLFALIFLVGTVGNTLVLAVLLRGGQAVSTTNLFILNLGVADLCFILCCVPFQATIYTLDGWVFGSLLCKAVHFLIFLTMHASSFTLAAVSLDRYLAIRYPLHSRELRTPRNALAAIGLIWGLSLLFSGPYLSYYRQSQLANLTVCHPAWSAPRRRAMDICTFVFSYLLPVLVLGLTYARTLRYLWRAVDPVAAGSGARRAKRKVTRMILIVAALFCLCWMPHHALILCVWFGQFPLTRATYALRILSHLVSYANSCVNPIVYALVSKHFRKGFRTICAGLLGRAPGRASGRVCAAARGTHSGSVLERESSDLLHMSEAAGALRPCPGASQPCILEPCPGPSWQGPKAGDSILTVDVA
Description: (§1) For binding assays, pellets of transfected cells are suspended in ice-cold buffer (20 mM Tris.HCl, 5 mM EDTA, pH 7.4) and homogenized by sonication for 7 sec. The cell lysates are centrifuged at 200×g for 5 min at 4° C. The supernatants are then centrifuged at 40,000×g for 20 min at 4° C. The resulting pellets are washed once in the homogenization buffer and suspended in binding buffer (see methods for radioligand binding). Protein concentrations are determined by the method of Bradford (1976) using bovine serum albumin as the standard. Binding assays are usually performed immediately, however it is possible to prepare membranes in batch and store frozen in liquid nitrogen for future use.
(§2) The methods to obtain the cDNA of the human NPY1, NPY5, GALR1, GALR2, and GALR3 and rat 5-HT2C receptors, express said receptors in heterologous systems, and carry out assays to determine binding affinity are described in the following publications and above: human NPY1 (Larhammar et al., 1992), human NPY5 (U.S. Pat. No. 5,602,024, the disclosure of which is hereby incorporated by reference in its entirety into this application), human Gal1 (Habert-Ortoli et al., 1994), human Gal2 (Smith et al., 1997), human Gal3 (Smith et al., 1998), and rat 5-HT2C (Julius et al., 1988).

human NPY5 = molecular target: T2, human NPY5 (Homo sapiens, UniProt Q15761); settings: read-out: hNPY5 Ki
T2 construct: expressed in transfected cells
T2 sequence (Q15761 1-445): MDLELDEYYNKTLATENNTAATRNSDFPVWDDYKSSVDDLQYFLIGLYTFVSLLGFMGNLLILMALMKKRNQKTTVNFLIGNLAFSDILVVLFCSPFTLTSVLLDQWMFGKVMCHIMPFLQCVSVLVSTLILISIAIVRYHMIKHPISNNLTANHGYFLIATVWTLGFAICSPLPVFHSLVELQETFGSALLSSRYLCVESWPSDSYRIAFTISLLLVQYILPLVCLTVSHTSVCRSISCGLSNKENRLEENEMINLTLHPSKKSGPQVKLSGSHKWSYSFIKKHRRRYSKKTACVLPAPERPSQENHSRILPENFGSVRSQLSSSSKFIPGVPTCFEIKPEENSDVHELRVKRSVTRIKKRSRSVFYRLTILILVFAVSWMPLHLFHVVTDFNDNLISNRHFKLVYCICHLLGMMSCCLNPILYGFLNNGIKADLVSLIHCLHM
Description: as §1, §2

human NPY1 = molecular target: T3, human NPY1 (Homo sapiens, UniProt P25929); settings: read-out: hNPY1 Ki
T3 construct: expressed in transfected cells
T3 sequence (P25929 1-384): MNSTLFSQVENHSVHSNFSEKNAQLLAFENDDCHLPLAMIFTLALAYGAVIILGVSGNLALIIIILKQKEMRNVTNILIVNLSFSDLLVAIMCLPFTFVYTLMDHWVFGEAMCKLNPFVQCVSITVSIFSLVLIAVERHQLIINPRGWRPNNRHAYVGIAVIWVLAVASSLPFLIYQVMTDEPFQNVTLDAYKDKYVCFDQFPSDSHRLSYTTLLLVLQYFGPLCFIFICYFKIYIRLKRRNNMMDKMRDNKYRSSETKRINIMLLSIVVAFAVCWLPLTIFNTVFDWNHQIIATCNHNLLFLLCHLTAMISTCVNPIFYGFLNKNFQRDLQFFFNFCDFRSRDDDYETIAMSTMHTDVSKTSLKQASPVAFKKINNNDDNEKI
Description: as §1, §2

human GALR1 = molecular target: T4, human GALR1 (Homo sapiens, UniProt P47211); settings: read-out: hGALR1 Ki
T4 construct: expressed in transfected cells
T4 sequence (P47211 1-349): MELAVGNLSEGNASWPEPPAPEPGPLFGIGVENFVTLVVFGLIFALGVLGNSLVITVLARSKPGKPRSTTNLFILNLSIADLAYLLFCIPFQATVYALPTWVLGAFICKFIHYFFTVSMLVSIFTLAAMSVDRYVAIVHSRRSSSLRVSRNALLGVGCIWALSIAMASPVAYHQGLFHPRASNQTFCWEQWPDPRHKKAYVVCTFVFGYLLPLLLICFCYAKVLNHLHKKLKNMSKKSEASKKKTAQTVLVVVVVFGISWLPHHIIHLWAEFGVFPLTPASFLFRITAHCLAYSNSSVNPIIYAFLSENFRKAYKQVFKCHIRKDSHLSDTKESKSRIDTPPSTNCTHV
Description: as §1, §2

rat 5-HT2C receptor = molecular target: T5, rat 5-HT2C receptor (Rattus norvegicus, UniProt P08909); settings: read-out: r5HT2C Ki
T5 construct: expressed in transfected cells
T5 sequence (P08909 33-460): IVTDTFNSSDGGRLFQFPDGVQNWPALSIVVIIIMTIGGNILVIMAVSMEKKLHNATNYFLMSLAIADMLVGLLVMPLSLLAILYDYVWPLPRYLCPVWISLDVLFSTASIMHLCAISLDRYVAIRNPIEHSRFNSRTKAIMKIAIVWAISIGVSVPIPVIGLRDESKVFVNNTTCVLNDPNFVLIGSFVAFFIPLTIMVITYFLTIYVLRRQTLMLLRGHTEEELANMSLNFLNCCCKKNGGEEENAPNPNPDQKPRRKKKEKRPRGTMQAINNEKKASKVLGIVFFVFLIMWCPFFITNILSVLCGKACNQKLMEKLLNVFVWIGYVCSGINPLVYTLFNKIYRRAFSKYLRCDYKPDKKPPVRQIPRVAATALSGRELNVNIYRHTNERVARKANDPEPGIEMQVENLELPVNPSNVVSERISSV
Description: as §1, §2

2-(3,4-DIFLUOROPHENYL)4,5-DIHYDROIMIDAZOLE-1-CARBOXYLIC ACID {3-[4-PHENYL-4-(4-BROMO-5-METHYLTHIOPNEN-2-YL)]PROPYL}-AMIDE [Example 19]
Ki (human GALR2; Table 2): > 50 µM
Ki (human GALR2; Table 3): > 50 µM
Ki (human NPY5; Table 2): > 50 µM
Ki (human NPY5; Table 3): > 50 µM
Ki (human NPY1; Table 2): > 50 µM
Ki (human NPY1; Table 3): > 50 µM
Ki (human GALR1; Table 2): > 50 µM
Ki (human GALR1; Table 3): > 50 µM
Ki (rat 5-HT2C receptor; Table 2): 11.7 µM
Ki (rat 5-HT2C receptor; Table 3): 11.7 µM
